In the NIST ThermoML archive (doi:10.1021/acs.jced.8b00132):
Values joined by “and” are separate entries in the source; they are usually repeats but may differ in a detail not shown here. Equal entries are not always repeated. ± gives the expanded uncertainty stated by the source.

Conditions: Gas

O=C(C(F)(F)C(F)(F)F)C(F)(C(F)(F)F)C(F)(F)F [dodecafluoro-2-methylpentan-3-one]
Conditions | thermal conductivity
454.15 K, 782 kPa, transient hot wire | 0.02353 ± 0.0014 W/m/K
454.15 K, 47000 kPa, transient hot wire | 0.06263 ± 0.0016 W/m/K
454.17 K, 779 kPa, transient hot wire | 0.02342 ± 0.0014 W/m/K
454.18 K, 46933 kPa, transient hot wire | 0.06269 ± 0.0016 W/m/K and 0.06261 ± 0.0016 W/m/K
454.2 K, 169 kPa, hot wire | 0.0226 ± 0.0011 W/m/K
454.2 K, 1365 kPa, transient hot wire | 0.0246 ± 0.00081 W/m/K
454.21 K, 169 kPa, hot wire | 0.02248 ± 0.0011 W/m/K
454.21 K, 1366 kPa, transient hot wire | 0.02448 ± 0.00081 W/m/K
454.22 K, 47 kPa, hot wire | 0.0225 ± 0.0011 W/m/K and 0.02246 ± 0.001 W/m/K
454.23 K, 526 kPa, transient hot wire | 0.02368 ± 0.0015 W/m/K
454.26 K, 526 kPa, transient hot wire | 0.02374 ± 0.0015 W/m/K
454.32 K, 351 kPa, transient hot wire | 0.02402 ± 0.0015 W/m/K
454.32 K, 354 kPa, transient hot wire | 0.02406 ± 0.0015 W/m/K
454.33 K, 781 kPa, transient hot wire | 0.02352 ± 0.0014 W/m/K
454.36 K, 1365 kPa, transient hot wire | 0.02461 ± 0.00081 W/m/K
454.38 K, 1365 kPa, transient hot wire | 0.02468 ± 0.00081 W/m/K
454.41 K, 524 kPa, transient hot wire | 0.02367 ± 0.0015 W/m/K
454.41 K, 526 kPa, transient hot wire | 0.02369 ± 0.0015 W/m/K
454.49 K, 780 kPa, transient hot wire | 0.02364 ± 0.0014 W/m/K
454.5 K, 345 kPa, transient hot wire | 0.02401 ± 0.0015 W/m/K
454.5 K, 348 kPa, transient hot wire | 0.02403 ± 0.0015 W/m/K
454.5 K, 779 kPa, transient hot wire | 0.02369 ± 0.0015 W/m/K
454.54 K, 1365 kPa, transient hot wire | 0.02476 ± 0.00082 W/m/K
454.58 K, 524 kPa, transient hot wire | 0.02372 ± 0.0015 W/m/K
454.6 K, 523 kPa, transient hot wire | 0.02364 ± 0.0014 W/m/K
454.67 K, 776 kPa, transient hot wire | 0.0236 ± 0.0014 W/m/K
454.68 K, 341 kPa, transient hot wire | 0.02404 ± 0.0015 W/m/K
454.68 K, 343 kPa, transient hot wire | 0.02408 ± 0.0015 W/m/K
454.68 K, 778 kPa, transient hot wire | 0.02361 ± 0.0014 W/m/K
454.78 K, 524 kPa, transient hot wire | 0.02371 ± 0.0015 W/m/K
454.79 K, 524 kPa, transient hot wire | 0.02372 ± 0.0015 W/m/K
454.86 K, 776 kPa, transient hot wire | 0.02365 ± 0.0015 W/m/K
454.87 K, 339 kPa, transient hot wire | 0.02408 ± 0.0015 W/m/K
454.87 K, 774 kPa, transient hot wire | 0.02365 ± 0.0015 W/m/K
454.88 K, 340 kPa, transient hot wire | 0.02406 ± 0.0015 W/m/K
454.98 K, 523 kPa, transient hot wire | 0.02378 ± 0.0015 W/m/K and 0.02375 ± 0.0015 W/m/K
455.07 K, 337 kPa, transient hot wire | 0.02422 ± 0.0015 W/m/K
455.08 K, 338 kPa, transient hot wire | 0.02415 ± 0.0015 W/m/K
472.48 K, 3077 kPa, transient hot wire | 0.03434 ± 0.0021 W/m/K
472.49 K, 3077 kPa, transient hot wire | 0.03339 ± 0.0021 W/m/K
472.51 K, 2894 kPa, transient hot wire | 0.03274 ± 0.002 W/m/K
472.53 K, 2894 kPa, transient hot wire | 0.034 ± 0.0021 W/m/K
472.53 K, 3077 kPa, transient hot wire | 0.034 ± 0.0021 W/m/K
472.55 K, 3077 kPa, transient hot wire | 0.03381 ± 0.0021 W/m/K
472.57 K, 2711 kPa, transient hot wire | 0.03198 ± 0.002 W/m/K
472.58 K, 2894 kPa, transient hot wire | 0.03316 ± 0.002 W/m/K
472.59 K, 2711 kPa, transient hot wire | 0.03186 ± 0.002 W/m/K
472.59 K, 2894 kPa, transient hot wire | 0.03275 ± 0.002 W/m/K
472.59 K, 3077 kPa, transient hot wire | 0.03373 ± 0.0021 W/m/K
472.6 K, 3077 kPa, transient hot wire | 0.03356 ± 0.0021 W/m/K
472.62 K, 3291 kPa, transient hot wire | 0.03462 ± 0.00082 W/m/K
472.63 K, 2711 kPa, transient hot wire | 0.03247 ± 0.002 W/m/K
472.64 K, 2711 kPa, transient hot wire | 0.03224 ± 0.002 W/m/K
472.64 K, 2894 kPa, transient hot wire | 0.03315 ± 0.002 W/m/K and 0.03273 ± 0.002 W/m/K
472.65 K, 3077 kPa, transient hot wire | 0.03407 ± 0.0021 W/m/K and 0.03386 ± 0.0021 W/m/K
472.67 K, 2504 kPa, transient hot wire | 0.03029 ± 0.0019 W/m/K
472.67 K, 3291 kPa, transient hot wire | 0.03475 ± 0.00083 W/m/K and 0.03505 ± 0.00083 W/m/K
472.68 K, 2504 kPa, transient hot wire | 0.02998 ± 0.0019 W/m/K
472.68 K, 2894 kPa, transient hot wire | 0.03347 ± 0.0021 W/m/K
472.7 K, 2711 kPa, transient hot wire | 0.0322 ± 0.002 W/m/K
472.7 K, 2712 kPa, transient hot wire | 0.03222 ± 0.002 W/m/K
472.7 K, 3078 kPa, transient hot wire | 0.03422 ± 0.0021 W/m/K and 0.0347 ± 0.0021 W/m/K
472.7 K, 4062 kPa, transient hot wire | 0.03638 ± 0.00086 W/m/K
472.71 K, 2894 kPa, transient hot wire | 0.03401 ± 0.0021 W/m/K
472.71 K, 4063 kPa, transient hot wire | 0.03625 ± 0.00086 W/m/K
472.73 K, 3291 kPa, transient hot wire | 0.03502 ± 0.00083 W/m/K and 0.03525 ± 0.00084 W/m/K
472.73 K, 3605 kPa, transient hot wire | 0.036 ± 0.00086 W/m/K
472.74 K, 3604 kPa, transient hot wire | 0.03572 ± 0.00085 W/m/K
472.75 K, 2505 kPa, transient hot wire | 0.03037 ± 0.0019 W/m/K
472.75 K, 2894 kPa, transient hot wire | 0.0336 ± 0.0021 W/m/K
472.75 K, 4063 kPa, transient hot wire | 0.03659 ± 0.00087 W/m/K
472.76 K, 2711 kPa, transient hot wire | 0.03263 ± 0.002 W/m/K
472.77 K, 2712 kPa, transient hot wire | 0.03232 ± 0.002 W/m/K
472.77 K, 2894 kPa, transient hot wire | 0.03342 ± 0.0021 W/m/K
472.77 K, 4063 kPa, transient hot wire | 0.0364 ± 0.00087 W/m/K
472.78 K, 3291 kPa, transient hot wire | 0.03545 ± 0.00084 W/m/K
472.78 K, 3605 kPa, transient hot wire | 0.03545 ± 0.00084 W/m/K
472.8 K, 4819 kPa, transient hot wire | 0.03773 ± 0.0009 W/m/K
472.81 K, 2264 kPa, transient hot wire | 0.02846 ± 0.0018 W/m/K
472.81 K, 2265 kPa, transient hot wire | 0.02848 ± 0.0018 W/m/K
472.81 K, 4062 kPa, transient hot wire | 0.03638 ± 0.00086 W/m/K
472.81 K, 4820 kPa, transient hot wire | 0.03801 ± 0.0009 W/m/K
472.82 K, 2505 kPa, transient hot wire | 0.03067 ± 0.0019 W/m/K and 0.03052 ± 0.0019 W/m/K
472.83 K, 2712 kPa, transient hot wire | 0.03316 ± 0.002 W/m/K
